For the experiment, the target named is T1, Rhombotin-2 (Homo sapiens, UniProt P25791).
T1 sequence (P25791 whole entry): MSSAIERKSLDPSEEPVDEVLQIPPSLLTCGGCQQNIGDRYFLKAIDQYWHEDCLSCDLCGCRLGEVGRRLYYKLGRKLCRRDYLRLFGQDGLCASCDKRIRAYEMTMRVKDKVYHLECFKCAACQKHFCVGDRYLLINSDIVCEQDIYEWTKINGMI
The experiment in a line: Binding affinity to GST-tagged LMO2 (unknown origin) by surface plasmon resonance analysis. For orientation: In SPR one partner is held on a chip, and binding of the other changes the refractive index at the surface.

Where a SMILES comes first, the peptide text is derived from it.

One may read the Kd as the constant that tells how readily two partners part at equilibrium. Compound `CC[C@H](C)[C@H](NC(=O)[C@@H](NC(=O)[C@H](Cc1cnc[nH]1)NC(=O)[C@H](CC(C)C)NC(=O)[C@H](CCCNC(=N)N)NC(=O)[C@H](CO)NC(=O)[C@H](CCC(N)=O)NC(=O)[C@@H](N)CO)[C@@H](C)O)C(=O)N[C@@H](CC(C)C)C(=O)N[C@@H](CS)C(=O)N[C@@H](Cc1cnc[nH]1)C(=O)N[C@@H](CCC(=O)O)C(=O)N[C@@H](CS)C(=O)N[C@H](C(=O)N[C@H](C(=O)N[C@@H](CO)C(=O)N[C@@H](Cc1ccccc1)C(=O)N[C@@H](CC(C)C)C(=O)N[C@@H](CO)C(=O)N[C@@H](CC(C)C)C(=O)O)[C@@H](C)O)C(C)C` (H-SQSRLHTILCHECVTSFLSL-OH) yielded a Kd of 29 nM.
